From patent US20250084079A1, “COMPOSITIONS AND METHODS FOR INHIBITION OF RAS” (TheRas, Inc., priority 2022, published 2025)
Read-outs that look alike come from different tables or passages of the source.

Tests used:
[1] = target: T1, Avi-KRAS G12D (1-169) GppNHp/RAF1 RBD-3xFLAG (52-151) (Homo sapiens, UniProt P01116, G12D); assay: RAS-effector PPI HTRF disruption assay, Raf1-GppNHp-KRAS G12D; format: biochemical
T1 construct: 100 nM Avi-KRAS G12D (1-169) GppNHp
How it was run: (§1)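 Disruption of Avi-KRAS(1-169)·GppNHp binding to FLAG-tagged effector fragments is measured by HTRF. The PI3KCA complex (G12D/Q25A) runs at 375 nM, the G12D/RAF1 complex at 100 nM, and the G12V and WT RAF1 complexes at 50 nM. Values are IC50s relative to DMSO.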

[2] = target: GppNHp KRAS G12D (Homo sapiens, UniProt P01116, G12D); assay: SPR binding affinity to GppNHp KRAS G12D (Biacore S200); settings: GppNHp-loaded KRAS G12D, steady state KD
Procedure: (§2) The affinity of compounds of the present disclosure to RAS ligands was assessed using surface plasmon resonance (SPR) binding analysis using a Biacore S200 (GE Healthcare Life Sciences) instrument. The SPR binding analysis employed the following reagents and protocols:
(§3) Buffer preparation: To make 0.5 L add required amounts of stocks for: 20 mM Hepes, 150 mM NaCl, 5 mM MgCl2, 1 mM TCEP, 0.05% P20, and 5 μM nucleotide. Adjust pH to 7.4, then bring volume up to 475 mL 1.05×Filter through 0.2 μm cellulose acetate membrane. Remove a volume of buffer as No DMSO Buffer 1.05× and set aside. Add appropriate volume of DMSO to buffer to a final concentration 5% DMSO.
(§4) Chip preparation: Prime 2× with 5% DMSO buffer. Allow system to flow on standby throughout the day.
(§5) Sample preparation: Make a 20× compound solution in 100% DMSO of highest compound concentration to be screened (2 mM for final 100 μM compound). Add appropriate volume of 1.05× buffer without DMSO to give 5% DMSO and mix by pipetting. Centrifuge sample 18,000×g 5 min 25° C. Make appropriate serial dilutions from the highest concentration into 5% DMSO running buffer for the concentrations needed. Prepare 5.8% DMSO and 4.5% DMSO solvent correction solutions using buffer without DMSO. Make two more solvent corrections by mixing 200 μL 4.5% 500 μL 5.8%, and 400 μL 4.5% 300 μL 5.8%
(§6) Capture Avi-taggedprotein: Thaw protein stock on ice, aliquot into single use size and freeze at −80° C. for future use. Dilute protein (avi-KRAS WT, avi-KRAS-G12D, avi-KRAS-G12V, or avi-RhoA) appropriately, to 20 μg/mL to begin in 5% DMSO buffer. Manually inject at 10 μL/min 12 second contact time. Adjust flow and or contact time to achieve desired level of captured protein. When desired level of protein is captured, flow for 10 minutes to stabilize signal.
(§7) General Binding Level Screen Method: Choose LMW screen template in Fragment/LMW subfolder in Binding screen folder. 30 μL/min high performance injection, 60 sec contact and dissociation time, carry over control, extra wash with 50% DMSO for each injection. Fifteen Startup cycles to condition. Control samples before and after compound samples. For GppNHp loaded KRAS, control is 20 μM Raf1 RBD domain. Adjust this sample to final 5% DMSO to match running buffer. This process is performed at a temperature of 25° C. using a single chip per experiment.
(§8) Binding affinity determination: Compounds selected from the binding level screen are evaluated in a dose response to determine the binding affinity (KD). Serial dilutions of compounds are prepared and injected over the sensor chip using a flow rate of 30 μL/min with a 60 second contact and dissociation time. After double referencing of the sensorgrams the total level of compound binding at each concentration is calculated. The steady state binding affinity is calculated with a Langmuir binding model assuming a 1:1 interaction with a constrained Rmax using the BIAevaluation software.

[3] = target: GDP KRAS G12D (Homo sapiens, UniProt P01116, G12D); assay: SPR binding affinity to GDP KRAS G12D (Biacore S200); settings: GDP-loaded KRAS G12D, steady state KD
Procedure: as §2, §3, §4, §5, §6, §7, §8

[4] = target: T2, Avi-KRAS WT (1-169) GppNHp/RAF1 RBD-3xFLAG (52-151) (Homo sapiens, UniProt P01116); assay: RAS-effector PPI HTRF disruption assay, Raf1-GppNHp-KRAS WT; format: biochemical
T2 construct: 50 nM Avi-KRAS WT (1-169) GppNHp
How it was run: as §1

[5] = target: T3, Avi-KRAS G12V (1-169) GppNHp/RAF1 RBD-3xFLAG (52-151) (Homo sapiens, UniProt P01116, G12V); assay: RAS-effector PPI HTRF disruption assay, Raf1-GppNHp-KRAS G12V; format: biochemical
T3 construct: 50 nM Avi-KRAS G12V (1-169) GppNHp
How it was run: as §1

[6] = system: pERK in GP2d cells (KRAS G12D); assay: Cell-based pERK HTRF assay in GP2d cell; settings: 60 min incubation
How it was run: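 GP2d cells (KRAS G12D) in DMEM/10% FBS were seeded the day before and exposed to compounds for 60 min in 0.25% DMSO. The 9-point curve started at 1 μM with half-log steps. Lysates were read for pERK by HTRF (Eu cryptate/d2 antibodies) after 4–24 h at room temperature, with excitation at 320 nm and emission at 615 nm.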

[7] = target: T4, Avi-KRAS G12D/Q25A (1-169) GppNHp/3xFLAG-PI3KCA (157-299) (Homo sapiens, UniProt P01116, G12D/Q25A); assay: RAS-effector PPI HTRF disruption assay, PI3KCA-GppNHp-KRAS G12D/Q25A; format: biochemical
T4 construct: 375 nM Avi-KRAS G12D/Q25A (1-169) GppNHp
How it was run: as §1

T3 sequence (P01116 1-169 isoform P01116-2 G12V): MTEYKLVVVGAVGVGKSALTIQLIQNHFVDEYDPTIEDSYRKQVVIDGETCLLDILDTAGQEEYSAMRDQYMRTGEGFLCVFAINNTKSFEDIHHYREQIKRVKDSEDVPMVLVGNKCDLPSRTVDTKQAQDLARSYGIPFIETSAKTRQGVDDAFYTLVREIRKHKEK
Chain of GDP KRAS G12D (P01116 1-188 isoform P01116-2 G12D): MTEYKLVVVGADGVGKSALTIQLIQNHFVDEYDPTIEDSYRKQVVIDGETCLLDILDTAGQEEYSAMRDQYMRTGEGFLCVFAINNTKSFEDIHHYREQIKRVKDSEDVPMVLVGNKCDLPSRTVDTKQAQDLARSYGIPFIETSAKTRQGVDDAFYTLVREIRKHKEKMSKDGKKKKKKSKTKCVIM
Chain of GppNHp KRAS G12D (P01116 1-188 isoform P01116-2 G12D): as above
T4 sequence (P01116 1-169 isoform P01116-2 G12D/Q25A): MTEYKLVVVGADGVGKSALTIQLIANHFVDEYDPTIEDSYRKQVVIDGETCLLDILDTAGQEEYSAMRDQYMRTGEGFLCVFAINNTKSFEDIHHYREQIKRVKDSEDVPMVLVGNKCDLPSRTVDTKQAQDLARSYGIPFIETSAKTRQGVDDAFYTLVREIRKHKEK
T2 sequence (P01116 1-169 isoform P01116-2): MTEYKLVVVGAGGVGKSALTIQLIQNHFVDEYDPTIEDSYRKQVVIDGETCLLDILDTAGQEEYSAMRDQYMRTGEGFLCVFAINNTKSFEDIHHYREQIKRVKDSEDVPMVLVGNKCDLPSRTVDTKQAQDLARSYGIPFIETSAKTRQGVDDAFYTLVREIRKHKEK
T1 sequence (P01116 1-169 isoform P01116-2 G12D): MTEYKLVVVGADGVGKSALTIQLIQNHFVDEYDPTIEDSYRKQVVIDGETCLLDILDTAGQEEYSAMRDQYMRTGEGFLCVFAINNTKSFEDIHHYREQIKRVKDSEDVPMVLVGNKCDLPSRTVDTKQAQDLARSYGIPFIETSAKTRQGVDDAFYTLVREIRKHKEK

IC50 [1] [µM]	Kd [2] [µM]	Kd [3] [µM]	IC50 [4] [µM]	IC50 [5] [µM]	IC50 ([6]; GP2d, 1 h) [µM]	IC50 [7] [µM]	IC50 ([6]; read-out: pERK-Gp2D-1 hr) [µM]	Compound
0.1 to 1	0.1 to 1	≤ 0.1	1 to 10	1 to 10	0.1 to 1	0.1 to 1		Nc1nc2c(-c3c(C(F)(F)F)cc4c(O[C@H]5CNC[C@@H]5F)nc(OC[C@@]56CCCN5C[C@H](F)C6)nc4c3F)ccc(F)c2s1 (atropisomer, axis not shown) [Compound 17]
> 10	> 10	0.1 to 1	> 10	> 10		> 10		Nc1nc2c(-c3c(C(F)(F)F)cc4c(O[C@H]5CNC[C@@H]5F)nc(OC[C@@]56CCCN5C[C@H](F)C6)nc4c3F)ccc(F)c2s1 (atropisomer, axis not shown) [Compound 18]
> 10	> 10	1 to 10	> 10	> 10		> 10		C[C@@H]1C[C@@H](Oc2nc(OC[C@@]34CCCN3C[C@H](F)C4)nc3c(F)c(-c4ccc(F)c5sc(N)nc45)c(C(F)(F)F)cc23)CN1 (atropisomer, axis not shown) [Compound 21]
0.1 to 1	1 to 10		1 to 10	> 10	≤ 0.1	1 to 10		C[C@H]1C[C@@H](Oc2nc(OC[C@@]34CCCN3C[C@H](F)C4)nc3c(F)c(-c4ccc(F)c5sc(N)nc45)c(C(F)(F)F)cc23)CN1 [Compound 7]
0.1 to 1			0.1 to 1	1 to 10		0.1 to 1	0.1 to 1	C[C@H]1C[C@H](Oc2nc(OC[C@@]34CCCN3C[C@H](F)C4)nc3c(F)c(-c4ccc(F)c5sc(N)c(C#N)c45)c(Cl)cc23)CN1 [Compound 54]
1 to 10			1 to 10	> 10		1 to 10	> 1	C[C@H]1C[C@H](Oc2nc(OC[C@@]34CCCN3C[C@H](F)C4)nc3c(F)c(-c4ccc(F)c5sc(N)c(C#N)c45)c(Cl)cc23)CN1 [Compound 55]
1 to 10			1 to 10	> 10	0.1 to 1	0.1 to 1		C[C@@H]1C[C@@H](Oc2nc(OC[C@@]34CCCN3C[C@H](F)C4)nc3c(F)c(-c4ccc(F)c5sc(N)c(C#N)c45)ccc23)CN1 [Compound 56]
1 to 10			1 to 10	> 10	0.1 to 1	0.1 to 1		Nc1nc2c(-c3c(C(F)(F)F)cc4c(O[C@H]5CN[C@@H](CO)C5)nc(OCC56CCCN5C[C@H](F)C6)nc4c3F)ccc(F)c2s1 (stereo partly drawn) [Compound 58]
0.1 to 1			0.1 to 1	0.1 to 1	≤ 0.1	0.1 to 1		C[C@H]1NCC[C@@H]1Oc1nc(OC[C@@]23CCCN2C[C@H](F)C3)nc2c(F)c(-c3ccc(F)c4sc(N)c(C#N)c34)c(Cl)cc12 [Compound 59]
0.1 to 1			0.1 to 1	1 to 10	≤ 0.1	1 to 10		N#Cc1c(N)sc2c(F)ccc(-c3c(C(F)(F)F)cc4c(O[C@@H]5CCN[C@@H]5CF)nc(OC[C@@]56CCCN5C[C@H](F)C6)nc4c3F)c12 [Compound 62]
0.1 to 1			1 to 10	1 to 10	0.1 to 1	1 to 10		N#Cc1c(N)sc2c(F)ccc(-c3c(Cl)cc4c(O[C@@H]5CNC[C@@H]5F)nc(OC[C@@]56CCCN5C[C@H](F)C6)nc4c3F)c12 [Compound 63]
0.1 to 1			0.1 to 1	0.1 to 1	≤ 0.1	0.1 to 1		C[C@@H]1NCC[C@@H]1Oc1nc(OC[C@@]23CCCN2C[C@H](F)C3)nc2c(F)c(-c3ccc(F)c4sc(N)c(C#N)c34)c(Cl)cc12 [Compound 65]
1 to 10			1 to 10	> 10	0.1 to 1	1 to 10		N#Cc1c(N)sc2c(F)ccc(-c3ccc4c(O[C@H]5CNC[C@H]5F)nc(OC[C@@]56CCCN5C[C@H](F)C6)nc4c3F)c12 [Compound 66]
0.1 to 1			0.1 to 1	1 to 10	0.1 to 1	> 10		N#Cc1c(N)sc2c(F)ccc(-c3c(C(F)(F)F)cc4c(O[C@@H]5CCNC5)nc(N5CC(N6CC7(CC7)C6)C5)nc4c3F)c12 [Compound 67]
≤ 0.1			0.1 to 1	0.1 to 1	0.1 to 1	0.1 to 1		N#Cc1c(N)sc2c(F)ccc(-c3c(Cl)cc4c(O[C@@H]5CN[C@H](CO)C5)nc(OC[C@@]56CCCN5C[C@H](F)C6)nc4c3F)c12 [Compound 70]
1 to 10			1 to 10	> 10	> 1	1 to 10		N#Cc1c(N)sc2c(F)ccc(-c3ccc4c(O[C@H]5CNC[C@@H]5F)nc(OC[C@@]56CCCN5C[C@H](F)C6)nc4c3F)c12 [Compound 71]
≤ 0.1			≤ 0.1	0.1 to 1	≤ 0.1	0.1 to 1		C[C@H]1NCC[C@@H]1Oc1nc(OC[C@@]23CCCN2C[C@H](Cl)C3)nc2c(F)c(-c3ccc(F)c4sc(N)c(C#N)c34)c(C(F)(F)F)cc12 [Compound 72]
> 10			> 10	> 10	> 1	> 10		N#Cc1c(N)sc2c(F)ccc(-c3c(F)cc4c(O[C@@H]5CCNC5)nc(OC[C@@]56CCCN5C[C@H](F)C6)nc4c3F)c12 [Compound 77]
1 to 10			1 to 10	> 10	0.1 to 1	> 10		N#Cc1c(N)sc2c(F)ccc(-c3ncc4c(O[C@@H]5CCNC5)nc(OC[C@@]56CCCN5C[C@H](F)C6)nc4c3F)c12 [Compound 97]
1 to 10			1 to 10	1 to 10	0.1 to 1	> 10		C[C@H]1NCC[C@H]1Oc1nc(OC[C@@]23CCCN2C[C@H](F)C3)nc2c(F)c(-c3ccc(F)c4sc(N)c(C#N)c34)ncc12 [Compound 98, 2-amino-7-fluoro-4-(8-fluoro-2-(((2R,7aS)-2-fluorotetrahydro-1H-pyrrolizin-7a(5H)-yl)methoxy)-4-(((2R,3R)-2-methylpyrrolidin-3-yl)oxy)pyrido[4,3-d]pyrimidin-7-yl)benzo[b]thiophene-3-carbonitrile]
